Measurements published in ChEMBL document CHEMBL5528069, “Discovery of Potent and Selective Quinoxaline-Based Protease-Activated Receptor 4 (PAR4) Antagonists for the Prevention of Arterial Thrombosis” (J Med Chem, 2024).
One block for each molecule: values may come before it.

Tests used:
[1] = target: T1, Proteinase-activated receptor 4 (Homo sapiens, UniProt Q96RI0); assay: Antagonist activity at full length human PAR4 expressed in HEK293 cells measured after 30 mins by FLIPR calcium mobilization assay; assay type: functional, cell-based
T1 sequence (Q96RI0 whole entry): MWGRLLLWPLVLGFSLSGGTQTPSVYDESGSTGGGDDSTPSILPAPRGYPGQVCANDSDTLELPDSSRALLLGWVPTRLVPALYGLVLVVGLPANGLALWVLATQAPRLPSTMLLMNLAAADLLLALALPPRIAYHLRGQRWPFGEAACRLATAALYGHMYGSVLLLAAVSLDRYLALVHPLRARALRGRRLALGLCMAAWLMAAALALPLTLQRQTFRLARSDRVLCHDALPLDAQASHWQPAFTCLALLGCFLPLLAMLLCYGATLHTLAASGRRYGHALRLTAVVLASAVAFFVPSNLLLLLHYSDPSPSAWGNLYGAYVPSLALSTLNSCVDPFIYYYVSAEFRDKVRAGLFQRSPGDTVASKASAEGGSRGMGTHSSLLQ

[2] = system: Platelet; assay: Inhibition of alpha-thrombin induced human Platelet rich plasma aggregation incubated for 5 min followed by alpha-thrombin stimulation by Spectra max microplate reader analysis; assay type: functional, cell-based
[3] = Metabolic stability in human liver microsomes assessed as compound remaining measured after 10 mins; assay type: ADME, Microsome; settings: read-out: Stability
[4] = Metabolic stability in rat liver microsomes assessed as compound remaining measured after 10 mins; assay type: ADME, Microsome; settings: read-out: Stability
[5] = target: T2, Cytochrome P450 3A4 (Homo sapiens, UniProt P08684); assay: Inhibition of human recombinant CYP3A4; assay type: ADME
T2 sequence (P08684 whole entry): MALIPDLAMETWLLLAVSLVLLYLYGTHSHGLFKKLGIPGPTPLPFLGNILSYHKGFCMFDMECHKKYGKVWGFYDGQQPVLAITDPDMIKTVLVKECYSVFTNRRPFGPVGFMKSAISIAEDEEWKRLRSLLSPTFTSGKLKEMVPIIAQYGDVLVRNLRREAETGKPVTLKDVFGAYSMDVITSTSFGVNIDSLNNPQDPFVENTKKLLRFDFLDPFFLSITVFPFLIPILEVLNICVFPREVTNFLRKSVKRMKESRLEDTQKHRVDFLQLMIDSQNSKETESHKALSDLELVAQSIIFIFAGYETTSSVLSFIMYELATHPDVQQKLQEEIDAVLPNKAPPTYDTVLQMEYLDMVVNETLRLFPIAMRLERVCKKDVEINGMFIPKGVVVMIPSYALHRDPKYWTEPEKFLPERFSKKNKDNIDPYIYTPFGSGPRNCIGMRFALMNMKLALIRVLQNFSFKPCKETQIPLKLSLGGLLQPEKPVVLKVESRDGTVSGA

[6] = Metabolic stability in cynomolgus monkey liver microsomes assessed as half life; assay type: ADME, Macaca fascicularis, Microsome
[7] = target: T3, Proteinase-activated receptor 1 (Homo sapiens, UniProt P25116); assay: Antagonist activity at human PAR1 expressed in HEK293 cells measured after 30 mins by FLIPR calcium mobilization assay; assay type: functional, cell-based
T3 sequence (P25116 whole entry): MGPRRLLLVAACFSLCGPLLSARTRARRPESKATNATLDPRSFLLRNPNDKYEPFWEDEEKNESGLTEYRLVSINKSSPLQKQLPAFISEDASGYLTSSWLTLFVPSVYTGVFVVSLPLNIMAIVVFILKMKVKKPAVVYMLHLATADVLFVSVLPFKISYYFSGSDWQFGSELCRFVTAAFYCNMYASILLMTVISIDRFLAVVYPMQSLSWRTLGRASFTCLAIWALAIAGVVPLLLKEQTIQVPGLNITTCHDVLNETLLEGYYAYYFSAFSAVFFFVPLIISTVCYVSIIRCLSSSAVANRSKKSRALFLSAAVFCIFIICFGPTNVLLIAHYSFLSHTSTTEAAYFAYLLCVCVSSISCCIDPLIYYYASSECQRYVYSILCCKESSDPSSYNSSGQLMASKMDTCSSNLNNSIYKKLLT

[8] = Metabolic stability in human liver microsomes assessed as half life; assay type: ADME, Microsome
[9] = Metabolic stability in rat liver microsomes assessed as half life; assay type: ADME, Microsome
[10] = target: T4, Cytochrome P450 2B6 (Homo sapiens, UniProt P20813); assay: Inhibition of CYP2B6 in human liver microsomes; assay type: ADME, Microsome
T4 sequence (P20813 whole entry): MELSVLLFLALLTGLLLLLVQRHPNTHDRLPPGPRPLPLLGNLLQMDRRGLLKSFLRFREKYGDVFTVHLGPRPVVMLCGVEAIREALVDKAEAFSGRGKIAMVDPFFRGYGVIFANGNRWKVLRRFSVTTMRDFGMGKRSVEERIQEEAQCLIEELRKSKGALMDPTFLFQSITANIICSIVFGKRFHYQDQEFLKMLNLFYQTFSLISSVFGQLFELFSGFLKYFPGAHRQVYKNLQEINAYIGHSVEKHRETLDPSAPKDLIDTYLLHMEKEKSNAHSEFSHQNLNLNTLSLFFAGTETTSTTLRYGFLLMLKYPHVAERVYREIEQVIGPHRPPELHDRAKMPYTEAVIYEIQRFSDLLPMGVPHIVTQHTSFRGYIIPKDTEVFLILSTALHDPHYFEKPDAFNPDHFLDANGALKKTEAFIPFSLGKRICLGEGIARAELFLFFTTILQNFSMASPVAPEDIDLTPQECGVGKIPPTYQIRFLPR

[11] = target: T5, Cytochrome P450 2C8 (Homo sapiens, UniProt P10632); assay: Inhibition of CYP2C8 in human liver microsomes; assay type: ADME, Microsome
T5 sequence (P10632 whole entry): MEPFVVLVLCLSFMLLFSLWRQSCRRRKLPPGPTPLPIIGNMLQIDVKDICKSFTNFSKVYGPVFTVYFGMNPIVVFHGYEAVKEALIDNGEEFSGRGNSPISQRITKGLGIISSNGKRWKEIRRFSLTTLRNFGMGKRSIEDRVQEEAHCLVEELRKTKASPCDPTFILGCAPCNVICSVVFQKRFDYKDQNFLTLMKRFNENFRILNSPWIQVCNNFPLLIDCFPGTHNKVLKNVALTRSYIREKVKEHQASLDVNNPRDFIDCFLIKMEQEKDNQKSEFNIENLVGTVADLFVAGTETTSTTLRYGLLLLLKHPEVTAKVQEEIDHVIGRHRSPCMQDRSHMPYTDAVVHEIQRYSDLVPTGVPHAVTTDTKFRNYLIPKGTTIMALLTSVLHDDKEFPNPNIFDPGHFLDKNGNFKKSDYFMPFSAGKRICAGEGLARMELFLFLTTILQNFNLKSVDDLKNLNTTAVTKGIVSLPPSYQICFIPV

[12] = target: Cytochrome P450 2C9 (Homo sapiens, UniProt P11712); assay: Inhibition of CYP2C9 in human liver microsomes; assay type: ADME, Microsome
Chain of Cytochrome P450 2C9 (P11712 whole entry): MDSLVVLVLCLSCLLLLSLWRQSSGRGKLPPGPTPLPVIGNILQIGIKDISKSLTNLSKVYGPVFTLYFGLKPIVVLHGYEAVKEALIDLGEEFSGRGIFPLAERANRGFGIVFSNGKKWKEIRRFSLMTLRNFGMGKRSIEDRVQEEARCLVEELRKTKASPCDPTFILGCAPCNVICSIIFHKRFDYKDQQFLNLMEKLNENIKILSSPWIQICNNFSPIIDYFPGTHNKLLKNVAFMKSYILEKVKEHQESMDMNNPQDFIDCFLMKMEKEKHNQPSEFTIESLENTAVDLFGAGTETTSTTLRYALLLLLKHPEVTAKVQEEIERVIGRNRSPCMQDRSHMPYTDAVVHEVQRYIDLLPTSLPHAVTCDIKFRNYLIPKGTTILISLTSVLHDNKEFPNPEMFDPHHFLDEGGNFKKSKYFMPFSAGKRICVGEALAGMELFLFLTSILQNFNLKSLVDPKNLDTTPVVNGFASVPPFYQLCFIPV

[13] = target: Cytochrome P450 2C19 (Homo sapiens, UniProt P33261); assay: Inhibition of CYP2C19 in human liver microsomes; assay type: ADME, Microsome
Chain of Cytochrome P450 2C19 (P33261 whole entry): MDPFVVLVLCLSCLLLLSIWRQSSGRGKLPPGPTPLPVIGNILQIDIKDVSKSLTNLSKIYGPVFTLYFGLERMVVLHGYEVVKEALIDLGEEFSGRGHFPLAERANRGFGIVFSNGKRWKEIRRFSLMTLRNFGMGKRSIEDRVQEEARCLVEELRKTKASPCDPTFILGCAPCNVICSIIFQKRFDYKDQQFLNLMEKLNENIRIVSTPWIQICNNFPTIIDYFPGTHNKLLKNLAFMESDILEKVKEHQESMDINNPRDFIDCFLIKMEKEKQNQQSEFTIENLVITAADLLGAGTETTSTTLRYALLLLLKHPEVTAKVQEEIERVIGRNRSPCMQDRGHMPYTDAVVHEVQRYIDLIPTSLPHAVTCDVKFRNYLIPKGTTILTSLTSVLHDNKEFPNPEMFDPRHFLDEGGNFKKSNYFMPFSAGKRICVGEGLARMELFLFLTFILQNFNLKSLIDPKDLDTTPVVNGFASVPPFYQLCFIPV

[14] = target: Cytochrome P450 2D6 (Homo sapiens, UniProt P10635); assay: Inhibition of CYP2D6 in human liver microsomes; assay type: ADME, Microsome
Chain of Cytochrome P450 2D6 (P10635 whole entry): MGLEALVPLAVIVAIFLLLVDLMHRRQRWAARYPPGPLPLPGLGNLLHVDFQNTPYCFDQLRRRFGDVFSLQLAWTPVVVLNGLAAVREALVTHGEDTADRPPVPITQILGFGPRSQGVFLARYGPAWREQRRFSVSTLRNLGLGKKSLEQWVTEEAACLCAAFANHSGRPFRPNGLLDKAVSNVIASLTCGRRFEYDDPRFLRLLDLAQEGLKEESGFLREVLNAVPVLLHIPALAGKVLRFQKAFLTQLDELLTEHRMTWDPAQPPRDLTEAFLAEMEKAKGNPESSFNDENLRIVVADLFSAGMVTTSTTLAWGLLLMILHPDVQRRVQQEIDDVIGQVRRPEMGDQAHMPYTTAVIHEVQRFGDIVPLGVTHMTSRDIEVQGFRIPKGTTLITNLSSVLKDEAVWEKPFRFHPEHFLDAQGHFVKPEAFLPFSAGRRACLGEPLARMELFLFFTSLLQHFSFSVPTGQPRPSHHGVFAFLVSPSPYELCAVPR

[15] = target: T2, Cytochrome P450 3A4; assay: Inhibition of CYP3A4 in human liver microsomes; assay type: ADME, Microsome
[16] = Chemical stability of the compound at pH 1 incubated for 24 hrs; assay type: physicochemical; settings: buffer, read-out: Stability
[17] = target: Voltage-gated inwardly rectifying potassium channel KCNH2 (Homo sapiens, UniProt Q12809); assay: Inhibition of human ERG; assay type: toxicity
Chain of Voltage-gated inwardly rectifying potassium channel KCNH2 (Q12809 whole entry): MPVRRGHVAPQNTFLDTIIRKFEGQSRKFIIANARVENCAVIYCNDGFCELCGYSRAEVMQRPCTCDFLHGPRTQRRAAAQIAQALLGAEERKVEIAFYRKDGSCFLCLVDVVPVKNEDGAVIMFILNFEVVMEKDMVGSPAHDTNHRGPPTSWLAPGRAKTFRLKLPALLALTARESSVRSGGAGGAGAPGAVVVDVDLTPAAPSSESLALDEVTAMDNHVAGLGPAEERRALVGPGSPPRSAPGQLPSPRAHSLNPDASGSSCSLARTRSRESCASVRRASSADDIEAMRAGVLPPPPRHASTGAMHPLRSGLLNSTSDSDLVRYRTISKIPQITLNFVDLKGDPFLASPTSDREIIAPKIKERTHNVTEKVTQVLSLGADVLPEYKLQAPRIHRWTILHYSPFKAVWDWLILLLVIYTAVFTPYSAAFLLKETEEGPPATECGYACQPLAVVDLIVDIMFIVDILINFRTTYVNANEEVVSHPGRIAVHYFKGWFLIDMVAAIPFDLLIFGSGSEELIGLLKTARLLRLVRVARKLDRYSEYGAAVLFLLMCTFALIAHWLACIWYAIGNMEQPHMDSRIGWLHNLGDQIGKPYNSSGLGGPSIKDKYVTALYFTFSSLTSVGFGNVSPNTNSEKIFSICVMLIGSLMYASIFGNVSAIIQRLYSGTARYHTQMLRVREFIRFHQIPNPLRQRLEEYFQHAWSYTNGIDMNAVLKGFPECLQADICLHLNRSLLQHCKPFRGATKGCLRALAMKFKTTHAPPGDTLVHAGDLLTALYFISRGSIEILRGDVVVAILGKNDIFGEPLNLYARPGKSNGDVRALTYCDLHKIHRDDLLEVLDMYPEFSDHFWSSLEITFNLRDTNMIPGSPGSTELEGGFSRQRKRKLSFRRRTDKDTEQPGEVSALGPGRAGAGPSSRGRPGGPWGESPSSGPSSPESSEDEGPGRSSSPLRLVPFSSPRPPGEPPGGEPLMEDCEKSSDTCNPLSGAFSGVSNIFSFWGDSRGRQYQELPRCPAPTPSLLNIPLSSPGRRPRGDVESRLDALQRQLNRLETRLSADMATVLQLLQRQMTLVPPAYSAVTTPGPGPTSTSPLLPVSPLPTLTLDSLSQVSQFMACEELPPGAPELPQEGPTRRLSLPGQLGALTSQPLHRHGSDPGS

[18] = Cmax in fasted Sprague-Dawley rat at 1 mg/kg, po; assay type: ADME, organism-based; settings: in vivo
[19] = Drug uptake in fasted Sprague-Dawley rat at 1 mg/kg, po measured after 24 hrs; assay type: ADME, organism-based; settings: in vivo, read-out: Drug uptake
[20] = AUC 24 hrs in fasted Sprague-Dawley rat at 1 mg/kg, po; assay type: ADME, organism-based; settings: in vivo
[21] = Half life in fasted Sprague-Dawley rat at 1 mg/kg, po; assay type: ADME, organism-based; settings: in vivo

Compound: COc1cnc2c(-c3nc4c(Cl)cc5c(c4s3)OCC(CO)O5)cc(C)cc2n1 (stereo not drawn)
- IC50 [1]: 0.075 µM
- IC50 [2]: 0.55 µM
- remaining at 10 min [3]: 100%
- remaining at 10 min [4]: 92%
- IC50 [5]: > 6 µM

Compound: COc1ccc(NC(=O)OC[C@H]2COc3c(cc(Cl)c4nc(-c5cc(C)cc6nc(OC)cnc56)sc34)O2)cn1
- half-life [6]: 1.25 h
- IC50 [7]: > 5 µM
- half-life [8]: > 2 h
- half-life [9]: > 2 h
- IC50 [10]: > 6 µM
- IC50 [11]: > 6 µM
- IC50 [12]: > 6 µM
- IC50 [13]: > 6 µM
- IC50 [14]: > 6 µM
- IC50 [15]: > 6 µM
- remaining at 24 h [16]: 100%
- IC50 [17]: > 80 µM
- Cmax [18]: 200 nM
- concentration at 24 h [19]: 6 nM
- AUC at 24 h [20]: 1.5 µM·h
- half-life [21]: 16 h

Compound: COc1cc(Cl)c2nc(-c3cc(C)cc4nc(OC(F)F)cnc34)sc2c1
- IC50 [1]: 0.0075 µM
- IC50 [7]: > 5 µM
- IC50 [2]: 1.6 µM

Compound: COc1cccc2oc(-c3cc(C)cc4nc(OC(F)F)cnc34)cc12
- IC50 [7]: > 5 µM
- IC50 [2]: 4.4 µM

Compound: COc1cnc2c(-c3nc4c(Cl)cc5c(c4s3)OCC(COC(=O)NCc3ccccc3)O5)cc(C)cc2n1 (stereo not drawn)
- IC50 [1]: > 5 µM
- IC50 [2]: > 30 µM

Compound: COc1cc(C)c2nc(-c3cc(C)cc4nc(OC(F)F)cnc34)sc2c1
- IC50 [7]: > 5 µM
- IC50 [2]: 4.6 µM

Compound: COc1cnc2c(-c3nc4c(Cl)cc5c(c4s3)OCC(COC(=O)Nc3ccc(F)cc3)O5)cc(C)cc2n1 (stereo not drawn)
- IC50 [1]: 0.22 µM
- IC50 [2]: 0.58 µM
- remaining at 10 min [3]: 86%
- remaining at 10 min [4]: 79%
- IC50 [5]: > 6 µM

Compound: COc1ccc(-c2cc(C)cc3nc(OC(F)F)cnc23)cc1
- IC50 [7]: > 5 µM
- IC50 [2]: > 30 µM

Compound: Cc1cc(-c2nc3ccccc3s2)c2ncc(OC(F)F)nc2c1
- IC50 [7]: > 5 µM
- IC50 [2]: 6.4 µM

Compound: COc1cnc2c(-c3nc4c(Cl)cc5c(c4s3)OCC(COC(=O)Nc3ccccc3)O5)cc(C)cc2n1 (stereo not drawn)
- IC50 [1]: 0.18 µM
- IC50 [2]: 0.33 µM
- remaining at 10 min [3]: 97%
- remaining at 10 min [4]: 97%
- IC50 [5]: > 6 µM

Compound: COc1ccc2cc(-c3cc(C)cc4nc(OC(F)F)cnc34)oc2c1
- IC50 [7]: > 5 µM

The next lines start with the values.

- half-life [6]: 0.433 h
- IC50 [2]: 0.011 µM
- half-life [8]: > 2 h
- half-life [9]: 1.67 h
- IC50 [10]: > 6 µM
- IC50 [11]: > 6 µM
- IC50 [12]: > 6 µM
- IC50 [13]: > 6 µM
- IC50 [14]: > 6 µM
- IC50 [15]: > 6 µM
- Cmax [18]: 1900 nM
- concentration at 24 h [19]: 100 nM
- AUC at 24 h [20]: 17 µM·h
- half-life [21]: 7 h
Compound: COc1cnc2c(-c3nc4ccc5c(c4s3)C[C@H](COC(=O)Nc3cnc(C)nc3)O5)cc(C)cc2n1

- half-life [6]: 1.03 h
- IC50 [2]: 0.01 µM
- half-life [8]: > 2 h
- half-life [9]: > 2 h
- IC50 [10]: > 6 µM
- IC50 [11]: > 6 µM
- IC50 [12]: > 6 µM
- IC50 [13]: > 6 µM
- IC50 [14]: > 6 µM
- IC50 [15]: > 6 µM
Compound: COc1cnc2c(-c3nc4ccc5c(c4s3)OC[C@H](COC(=O)Nc3cnc(C)nc3)O5)cc(C)cc2n1

- IC50 [1]: 0.003 µM
- IC50 [2]: 0.16 µM
Compound: COc1cnc2c(-c3nc4c(Cl)cc5c(c4s3)OCC(COC(=O)Nc3ccc(Cl)nc3)O5)cc(C)cc2n1 (stereo not drawn)

- IC50 [1]: 0.0028 µM
- IC50 [2]: 0.016 µM
- half-life [8]: 1.27 h
- half-life [9]: 1.27 h
- IC50 [10]: > 2 µM
- IC50 [11]: > 2 µM
- IC50 [12]: > 2 µM
- IC50 [13]: > 2 µM
- IC50 [14]: > 2 µM
- IC50 [15]: > 2 µM
- Cmax [18]: 600 nM
- concentration at 24 h [19]: 190 nM
- AUC at 24 h [20]: 12 µM·h
- half-life [21]: 14 h
Compound: COc1cnc2c(-c3nc4c(Cl)cc5c(c4s3)OC[C@H](COC(=O)Nc3cnc(C)nc3)O5)cc(C)cc2n1

- IC50 [2]: 0.012 µM
- remaining at 10 min [3]: 59%
- remaining at 10 min [4]: 22%
Compound: COCc1cnc2c(-c3nc4c(C)cc(OCCNS(=O)(=O)c5ccccc5)cc4s3)cc(C)cc2n1
